In the supplement of paper PMC11208160:

Assay: recombinant UMI read abundance after kanamycin selection (control-corrected) (log10(CPM+1)); higher = more efficient recombination; extreme values may be limits of the assay; sequences stand for … in AGTGCAGAGAAAATCGGCCAGTTTTCTCTGCCTGCAGTCCGCATGCCGTGGGACCCCTTGGGTTCTAACCTGTTGCCTAGATTTATGCAGCGGACTGCCTTTCTCCCAAAGTGATAAACCGG…AGGTTGGTTTCACT; site = the 11-nt donor
Method in brief: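 Each donor and donor-binding-loop pair was tracked by a 12-nt UMI on a plasmid carrying a promoterless kanamycin gene. With a second plasmid supplying a fixed target and T7-inducible IS621 bridge recombinase, the pool was plated in Escherichia coli on IPTG (0.07 mM) plus kanamycin or unselected. Sequencing of recombinant UMIs across the donor–target junction gave counts expressed as log10(CPM+1) after replicate averaging and control-derived scaling.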
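Also: IS621 bridge recombinase in Escherichia coli cells against a fixed T5 target plasmid.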

Question: Which “recombinant UMI read abundance (log10)” value does the source give for “TAGAATACATGGACCGGTTTTCCCGGTAATCCGTATTTGGA (site TAGAATACTTG)” here?
Answer: Its value is 0.

Question: Which “recombinant UMI read abundance (log10)” value does the source give for “TAGAATACATGGACCGGTTTTCCCGGTAATCCGTATTTGGA (site TAGAATACTTT)” here?
Answer: The value was 0.731.

Question: With “TAGACAACATGGACCGGTTTTCCCGGTAATCCGTATTTGAG (site TAGACAACTCT)” as the sequence, how does the “recombinant UMI read abundance (log10)” value read?
Answer: Its value is 0.821.

Question: Which “recombinant UMI read abundance (log10)” value does the source give for “TAGAGCGCATGGACCGGTTTTCCCGGTAATCCGTATTTGTG (site TAGAGCGCTCA)” here?
Answer: Its value is 1.05.

Question: For “TAGAGTACATGGACCGGTTTTCCCGGTAATCCGTATTTGCA (site TAGAATACTTG)”, which “recombinant UMI read abundance (log10)” value is on record?
Answer: Its value is 1.37.

Question: For “TAGAGTACATGGACCGGTTTTCCCGGTAATCCGTATTTGCA (site TAGACTACTTG)”, which “recombinant UMI read abundance (log10)” value is on record?
Answer: Its value is 0.88.

Question: Which “recombinant UMI read abundance (log10)” value does the source give for “TAGAGTACATGGACCGGTTTTCCCGGTAATCCGTATTTGCA (site TAGAGTACTTG)” here?
Answer: Its value is 2.08.

Question: With “TAGAGTACATGGACCGGTTTTCCCGGTAATCCGTATTTGCA (site TAGATTACTTG)” as the sequence, how does the “recombinant UMI read abundance (log10)” value read?
Answer: The value was 0.

Question: For “TAGATAACATGGACCGGTTTTCCCGGTAATCCGTATTTGTG (site TAGATAACTCA)”, which “recombinant UMI read abundance (log10)” value is on record?
Answer: Its value is 1.2.

Question: With “TAGATAGCATGGACCGGTTTTCCCGGTAATCCGTATTTGAA (site TAGATAGCTTT)” as the sequence, how does the “recombinant UMI read abundance (log10)” value read?
Answer: The value was 2.07.

Question: Which “recombinant UMI read abundance (log10)” value does the source give for “TAGATAGCATGGACCGGTTTTCCCGGTAATCCGTATTTGAA (site TAGCTAGCTTT)” here?
Answer: Its value is 0.0111.

Question: For “TAGATAGCATGGACCGGTTTTCCCGGTAATCCGTATTTGAA (site TAGGTAGCTTT)”, which “recombinant UMI read abundance (log10)” value is on record?
Answer: Its value is 0.0819.

Question: Which “recombinant UMI read abundance (log10)” value does the source give for “TAGATAGCATGGACCGGTTTTCCCGGTAATCCGTATTTGAA (site TAGTTAGCTTT)” here?
Answer: The value was 0.173.

Question: Which “recombinant UMI read abundance (log10)” value does the source give for “TAGCACGCATGGACCGGTTTTCCCGGTAATCCGTATTTGGG (site AAGCACGCTCC)” here?
Answer: The value was 0.0104.

Question: Which “recombinant UMI read abundance (log10)” value does the source give for “TAGCACGCATGGACCGGTTTTCCCGGTAATCCGTATTTGGG (site CAGCACGCTCC)” here?
Answer: The value was 0.00759.

Question: With “TAGCACGCATGGACCGGTTTTCCCGGTAATCCGTATTTGGG (site GAGCACGCTCC)” as the sequence, how does the “recombinant UMI read abundance (log10)” value read?
Answer: The value was 0.0209.

Question: For “TAGCACGCATGGACCGGTTTTCCCGGTAATCCGTATTTGGG (site TAGCACGCTCC)”, which “recombinant UMI read abundance (log10)” value is on record?
Answer: The value was 0.0358.

Question: Which “recombinant UMI read abundance (log10)” value does the source give for “TAGCCGTCATGGACCGGTTTTCCCGGTAATCCGTATTTGGT (site TAGCCATCTAC)” here?
Answer: The value was 0.764.

Question: Which “recombinant UMI read abundance (log10)” value does the source give for “TAGCCGTCATGGACCGGTTTTCCCGGTAATCCGTATTTGGT (site TAGCCCTCTAC)” here?
Answer: Its value is 0.

Question: With “TAGCCGTCATGGACCGGTTTTCCCGGTAATCCGTATTTGGT (site TAGCCGTCTAC)” as the sequence, how does the “recombinant UMI read abundance (log10)” value read?
Answer: Its value is 0.776.

Question: With “TAGCCGTCATGGACCGGTTTTCCCGGTAATCCGTATTTGGT (site TAGCCTTCTAC)” as the sequence, how does the “recombinant UMI read abundance (log10)” value read?
Answer: The value was 0.013.

Question: Which “recombinant UMI read abundance (log10)” value does the source give for “TAGCCTTCATGGACCGGTTTTCCCGGTAATCCGTATTTGGA (site TAGCCTTCTAC)” here?
Answer: Its value is 0.0179.

Question: For “TAGCCTTCATGGACCGGTTTTCCCGGTAATCCGTATTTGGA (site TAGCCTTCTCC)”, which “recombinant UMI read abundance (log10)” value is on record?
Answer: Its value is 0.02.

Question: With “TAGCCTTCATGGACCGGTTTTCCCGGTAATCCGTATTTGGA (site TAGCCTTCTGC)” as the sequence, how does the “recombinant UMI read abundance (log10)” value read?
Answer: The value was 0.

Question: With “TAGCCTTCATGGACCGGTTTTCCCGGTAATCCGTATTTGGA (site TAGCCTTCTTC)” as the sequence, how does the “recombinant UMI read abundance (log10)” value read?
Answer: The value was 0.00303.

Question: For “TAGCCTTCATGGACCGGTTTTCCCGGTAATCCGTATTTGGG (site TAGCCTTCTAC)”, which “recombinant UMI read abundance (log10)” value is on record?
Answer: Its value is 0.

Question: With “TAGCCTTCATGGACCGGTTTTCCCGGTAATCCGTATTTGGG (site TAGCCTTCTCC)” as the sequence, how does the “recombinant UMI read abundance (log10)” value read?
Answer: The value was 0.0175.

Question: Which “recombinant UMI read abundance (log10)” value does the source give for “TAGCCTTCATGGACCGGTTTTCCCGGTAATCCGTATTTGGG (site TAGCCTTCTGC)” here?
Answer: Its value is 0.

Question: Which “recombinant UMI read abundance (log10)” value does the source give for “TAGCCTTCATGGACCGGTTTTCCCGGTAATCCGTATTTGGG (site TAGCCTTCTTC)” here?
Answer: The value was 0.0097.

Question: For “TAGCGAACATGGACCGGTTTTCCCGGTAATCCGTATTTGGA (site TAGCGAACTTC)”, which “recombinant UMI read abundance (log10)” value is on record?
Answer: The value was 1.05.

Question: Which “recombinant UMI read abundance (log10)” value does the source give for “TAGCGAGCATGGACCGGTTTTCCCGGTAATCCGTATTTGAA (site TAGCAAGCTTT)” here?
Answer: Its value is 1.3.

Question: With “TAGCGAGCATGGACCGGTTTTCCCGGTAATCCGTATTTGAA (site TAGCCAGCTTT)” as the sequence, how does the “recombinant UMI read abundance (log10)” value read?
Answer: The value was 0.0145.
